EC50 data for 19 compounds are collected here from US20140039007A1, “COMPOSITIONS AND METHODS FOR MODULATING FARNESOID X RECEPTORS” (priority 2010, published 2014).

SMILES strings stand for the structures.

This assay has as its target T1, human GST-FXR LBD (Homo sapiens, UniProt Q96RI1).
T1 construct: purchased Invitrogen
T1 sequence (Q96RI1 193-472 isoform Q96RI1-2): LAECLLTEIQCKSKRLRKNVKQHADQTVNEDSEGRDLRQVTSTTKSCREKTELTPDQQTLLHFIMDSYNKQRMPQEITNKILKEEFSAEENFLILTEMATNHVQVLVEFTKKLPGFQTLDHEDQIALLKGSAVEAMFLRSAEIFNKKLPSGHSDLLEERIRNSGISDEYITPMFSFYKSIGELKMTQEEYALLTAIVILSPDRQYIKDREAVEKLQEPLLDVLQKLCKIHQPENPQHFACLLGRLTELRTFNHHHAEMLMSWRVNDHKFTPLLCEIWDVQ
In words: Human GST-FXR LBD Co-activator interaction Assay (FXR HTRF assay). It is filed as biochemical. The settings on record: GST-FXR LBD / biotin-labeled SRC-1 peptide, response relative to GW4064. From the text:
Human GST-FXR LBD Co-activator interaction Assay.
The FXR HTRF assay is a biochemical assay measuring the interaction between FXR and a coactivator protein (SRC1). The ligand-induced interaction with a coactivator protein is a critical step in transcriptional activation by FXR. Thus, this is an assay designed to measure FXR agonist activity of compounds.
Recombinant human Farnesoid X Receptor (FXR) ligand binding domain (amino acids 193-472) fused to glutathione S-transferase (GST) purified protein (GST-FXR LBD) was purchased (Invitrogen). The ligand-dependent interaction between GST-FXR LBD and a peptide derived from Steroid Receptor Coactivator-1 (SRC-1) was monitored by Fluorescence Resonance Energy Transfer (FRET). GST-FXR LBD was mixed with a biotin-labeled SRC-1 peptide (Sequence: Biotin-[…]-SPS-CONH2, American Peptide) in assay buffer (50 mM Tris HCl, pH 7.4, 50 mM NaCl, 1 mM TCEP and 0.2% bovine serum albumen) and plated in 384 black Proxi plates (Greiner Bio-One). Test compounds (in DMSO solution) and detection reagents (anti-GST-Cryptate labeled antibody and Streptavidin-XL665 conjugate; CisBio) were added in assay buffer containing 50 mM KF. Plates are incubated at room temperature in the dark for 2.5 hours before reading on an Envision (PerkinElmer) at 665 nm and 590 nm. The HTRF assay results were calculated from the 665 nm/590 nm ratio (ratio=(A665 nm/A590 nm)×10^4) and expressed in Delta F %=(Ratiosample−Rationegative)/Rationegative×100.
A negative control (without Streptavidin-XL665) was run with each assay and represented the background fluorescence. A reference FXR agonist, GW4064, was included in each experiment as positive control. The efficacy of each test compound was compared to that of GW4064. At each concentration, the relative activity of the test compound was expressed as Response %=(Rsample−RDMSO)/(Rpositive−RDMSO), where Rsample is the HTRF response, (expressed in Delta F %) for the test compound, Rpositive is the maximal response for GW4064 at saturating concentrations, and RDMSO is the response for DMSO control. The EC50 values were calculated using GraphPad Prism (GraphPad Software) using non-linear regression curve fit (log(agonist) vs. response−variable slope (four parameters)).
(TR-FRET usually uses a lanthanide donor and a delayed reading to cut background.)
In turn, `COC(=O)c1ccc(-c2nc(N3CCC(OCc4c(-c5ccccc5OC(F)(F)F)noc4C4CC4)CC3)no2)cc1` [Example 1A, Methyl 4-(3-(4-((5-cyclopropyl-3-(2-(trifluoromethoxy)phenyl)isoxazol-4-yl)methoxy)piperidin-1-yl)-1,2,4-oxadiazol-5-yl)benzoate] registered an EC50 of 2.38 µM.

With `O=C(O)c1ccc(-c2nc(N3CCC(OCc4c(-c5ccccc5OC(F)(F)F)noc4C4CC4)CC3)no2)cc1` [Example 1B, 4-(3-(4-((5-cyclopropyl-3-(2-(trifluoromethoxy)phenyl)isoxazol-4-yl)methoxy)piperidin-1-yl)-1,2,4-oxadiazol-5-yl)benzoic acid], the EC50 came to 0.09 µM.

In the case of `COC(=O)c1cccc(-c2nc(N3CCC(OCc4c(-c5ccccc5OC(F)(F)F)noc4C4CC4)CC3)no2)c1` [Example 2A, methyl 3-{3-[4-({5-cyclopropyl-3-[2-(trifluoromethoxy)phenyl]-1,2-oxazol-4-yl}methoxy)piperidin-1-yl]-1,2,4-oxadiazol-5-yl}benzoate], it took 2.02 µM to reach a half-maximal effect (EC50). Against the preceding compound, the EC50 is about 22-fold higher.

Compound `O=C(O)c1cccc(-c2nc(N3CCC(OCc4c(-c5ccccc5OC(F)(F)F)noc4C4CC4)CC3)no2)c1` [Example 2B, 3-{3-[4-({5-cyclopropyl-3-[2-(trifluoromethoxy)phenyl]-1,2-oxazol-4-yl}methoxy)piperidin-1-yl]-1,2,4-oxadiazol-5-yl}benzoic acid] came in with an EC50 of 0.128 µM.

`COC(=O)c1ccc(-c2nc(N3CCC(OCc4c(-c5ccccc5OC(F)(F)F)noc4C4CC4)CC3)no2)s1` [Example 3A, methyl 5-{3-[4-({5-cyclopropyl-3-[2-(trifluoromethoxy)phenyl]-1,2-oxazol-4-yl}methoxy)piperidin-1-yl]-1,2,4-oxadiazol-5-yl}thiophene-2-carboxylate] yielded an EC50 of 0.946 µM.

In turn, `O=C(O)c1ccc(-c2nc(N3CCC(OCc4c(-c5ccccc5OC(F)(F)F)noc4C4CC4)CC3)no2)s1` [Example 3B, 5-{3-[4-({5-cyclopropyl-3-[2-(trifluoromethoxy)phenyl]-1,2-oxazol-4-yl}methoxy)piperidin-1-yl]-1,2,4-oxadiazol-5-yl}thiophene-2-carboxylic acid] showed an EC50 of 0.275 µM.

In turn, `COC(=O)c1ccc(-c2nc(N3CCC(OCc4c(-c5c(Cl)cccc5Cl)noc4C4CC4)CC3)no2)cc1` [Example 4A] yielded an EC50 of 0.812 µM.

Consider `O=C(O)c1ccc(-c2nc(N3CCC(OCc4c(-c5c(Cl)cccc5Cl)noc4C4CC4)CC3)no2)cc1` [Example 4B], for which the EC50 was 0.114 µM. This EC50 is about 7.1-fold lower than that of the compound before.

With `O=C(O)c1cccc(-c2nc(N3CCC(OCc4c(-c5c(Cl)cccc5Cl)noc4C4CC4)CC3)no2)c1` [Example 5B, 3-[3-(4-{[5-cyclopropyl-3-(2,6-dichlorophenyl)-1,2-oxazol-4-yl]methoxy}piperidin-1-yl)-1,2,4-oxadiazol-5-yl]benzoic acid], a half-maximal effect (EC50) was put at 0.06 µM.

In turn, `COC(=O)C1CCC(c2nc(N3CCC(OCc4c(-c5c(Cl)cccc5Cl)noc4C4CC4)CC3)no2)CC1` (stereo not shown) [Example 6A, methyl 4-[3-(4-{[5-cyclopropyl-3-(2,6-dichlorophenyl)-1,2-oxazol-4-yl]methoxy}piperidin-1-yl)-1,2,4-oxadiazol-5-yl]cyclohexane-1-carboxylate] came in with an EC50 of 1.62 µM.

`O=C(O)C1CCC(c2nc(N3CCC(OCc4c(-c5c(Cl)cccc5Cl)noc4C4CC4)CC3)no2)CC1` (stereo not shown) [Example 6B, 4-[3-(4-{[5-cyclopropyl-3-(2,6-dichlorophenyl)-1,2-oxazol-4-yl]methoxy}piperidin-1-yl)-1,2,4-oxadiazol-5-yl]cyclohexane-1-carboxylic acid] showed an EC50 of 0.823 µM.

As to `COC(=O)C1CCC(c2nc(N3CCC(OCc4c(-c5c(Cl)cccc5Cl)noc4C4CC4)CC3)no2)C1` (stereo not shown) [Example 7A, methyl-3-[3-(4-{[5-cyclopropyl-3-(2,6-dichlorophenyl)-1,2-oxazol-4-yl]methoxy}piperidin-1-yl)-1,2,4-oxadiazol-5-yl]cyclopentane-1-carboxylate], the EC50 came out at 1.59 µM.

In turn, `O=C(O)C1CCC(c2nc(N3CCC(OCc4c(-c5c(Cl)cccc5Cl)noc4C4CC4)CC3)no2)C1` (stereo not shown) [Example 7B, 3-[3-(4-{[5-cyclopropyl-3-(2,6-dichlorophenyl)-1,2-oxazol-4-yl]methoxy}piperidin-1-yl)-1,2,4-oxadiazol-5-yl]cyclopentane-1-carboxylic acid] returned an EC50 of 1.56 µM.

In turn, `COC(=O)c1ccc(-c2nc(N3CCC(OCc4c(-c5c(Cl)cccc5Cl)noc4C4CC4)CC3)no2)s1` [Example 8A, methyl 5-[3-(4-{[5-cyclopropyl-3-(2,6-dichlorophenyl)-1,2-oxazol-4-yl]methoxy}piperidin-1-yl)-1,2,4-oxadiazol-5-yl]thiophene-2-carboxylate] displayed an EC50 of 2.95 µM.

The compound `O=C(O)c1ccc(-c2nc(N3CCC(OCc4c(-c5c(Cl)cccc5Cl)noc4C4CC4)CC3)no2)s1` [Example 8B, 5-[3-(4-{[5-cyclopropyl-3-(2,6-dichlorophenyl)-1,2-oxazol-4-yl]methoxy}piperidin-1-yl)-1,2,4-oxadiazol-5-yl]thiophene-2-carboxylic acid] displayed a half-maximal effective concentration (EC50) of 0.105 µM.

For `COC(=O)c1cccc(-c2nc(N3CCC(OCc4c(-c5c(Cl)cccc5Cl)noc4C4CC4)CC3)no2)n1` [Example 9A, methyl 6-[3-(4-{[5-cyclopropyl-3-(2,6-dichlorophenyl)-1,2-oxazol-4-yl]methoxy}piperidin-1-yl)-1,2,4-oxadiazol-5-yl]pyridine-2-carboxylate], the 50% effective concentration (EC50) was 0.463 µM.

For the compound `O=C(O)c1cccc(-c2nc(N3CCC(OCc4c(-c5c(Cl)cccc5Cl)noc4C4CC4)CC3)no2)n1` [Example 9B, 6-[3-(4-{[5-cyclopropyl-3-(2,6-dichlorophenyl)-1,2-oxazol-4-yl]methoxy}piperidin-1-yl)-1,2,4-oxadiazol-5-yl]pyridine-2-carboxylic acid], the EC50 was found to be 0.128 µM.

As to `O=C(O)c1ccc(-c2nc(N3CCC(OCc4c(-c5c(F)cccc5F)noc4C4CC4)CC3)no2)cc1` [Example 10, 4-[3-(4-{[5-cyclopropyl-3-(2,6-difluorophenyl)-1,2-oxazol-4-yl]methoxy}piperidin-1-yl)-1,2,4-oxadiazol-5-yl]benzoic acid], the midpoint of the response, the EC50, lay at 0.934 µM.

Compound `O=C(O)c1ccc(-c2nc(N3CCC(OCc4c(-c5ccccc5C(F)(F)F)noc4C4CC4)CC3)no2)cc1` [Example 11, 4-{3-[4-({5-cyclopropyl-3-[2-(trifluoromethyl)phenyl]-1,2-oxazol-4-yl}methoxy)piperidin-1-yl]-1,2,4-oxadiazol-5-yl}benzoic acid] came in with an EC50 of 0.587 µM.

As a reminder, the EC50 is the concentration that produces a half-maximal response. Read a low EC50 as greater potency.
